US6472348B1, “Pyridone derivatives and herbicides” (Kumiai Chemical Industry Co., Ltd., priority 1996, dated 2002)
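For Herbicidal effects Sc in this document: grade of growth control; 5 = at least 90%; 4 = 70 to 90%; 3 = 50 to 70%; 2 = 30 to 50%; 1 = 10 to 30%; 0 = under 10%.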

These molecules were tested on wheat (Tr) (assay: Test Example 9: crop plant selectivity by upland field foliage treatment (wheat), phytotoxicity). Settings: dose 1.6 g ai/10a, 14th day after treatment.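 Also: grade of crop injury; 5 = at least 90%; 4 = 70 to 90%; 3 = 50 to 70%; 2 = 30 to 50%; 1 = 10 to 30%; 0 = under 10%.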
Experimental: (§1) (Test on Crop Plant Selectivity by Upland Field Foliage Treatment)
(§2) In a plastic pot (surface area: 600 cm^2) filled with sand, wheat (Tr), pale smartweed (Po), slender amaranth (Am), common lambsquarters (Ch) and China jute (Ab) were sown and cultured in a green house for 2 weeks. […] The plants were then cultured in a green house, and the evaluation of the herbicidal effects and phytotoxicity was conducted on the 14th day after the treatment in accordance with the standards as identified in Table 47.
In the case of CCCC(Sc1cc(-c2ccc(C(F)(F)F)n(C)c2=O)c(F)cc1Cl)C(=O)OCC (centres unmarked) [1-48], the “Phytotoxicity Tr” value is reported as 2.

Each molecule was assayed on common lambsquarters (Ch) (assay: Test Example 9: crop plant selectivity by upland field foliage treatment (wheat), herbicidal effects). Settings: dose 1.6 g ai/10a, 14th day after treatment.
Assay type: in vivo
Design: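 grade of growth control; 5 = at least 90%; 4 = 70 to 90%; 3 = 50 to 70%; 2 = 30 to 50%; 1 = 10 to 30%; 0 = under 10%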
Experimental: as §1, §2
CCCC(Sc1cc(-c2ccc(C(F)(F)F)n(C)c2=O)c(F)cc1Cl)C(=O)OCC (centres unmarked) [1-48] was tested, and the “Herbicidal effects Ch” value was 5.

These molecules were tested on China jute (Ab) in the same assay as above. Settings: dose 1.6 g ai/10a, 14th day after treatment.
Assay type: in vivo
Design: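 grade of growth control; 5 = at least 90%; 4 = 70 to 90%; 3 = 50 to 70%; 2 = 30 to 50%; 1 = 10 to 30%; 0 = under 10%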
Experimental: as §1, §2
In the case of CCCC(Sc1cc(-c2ccc(C(F)(F)F)n(C)c2=O)c(F)cc1Cl)C(=O)OCC (centres unmarked) [1-48], the “Herbicidal effects Ab” value is reported as 5.

The molecules below were run on pale smartweed (Po) in the same assay as above. Settings: dose 1.6 g ai/10a, 14th day after treatment.
Assay type: in vivo
Design: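 grade of growth control; 5 = at least 90%; 4 = 70 to 90%; 3 = 50 to 70%; 2 = 30 to 50%; 1 = 10 to 30%; 0 = under 10%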
Experimental: as §1, §2
CCCC(Sc1cc(-c2ccc(C(F)(F)F)n(C)c2=O)c(F)cc1Cl)C(=O)OCC (centres unmarked) [1-48] was tested, and the “Herbicidal effects Po” value was 5.

Each molecule was assayed on slender amaranth (Am) in the same assay as above. Settings: dose 1.6 g ai/10a, 14th day after treatment.
Assay type: in vivo
Design: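 grade of growth control; 5 = at least 90%; 4 = 70 to 90%; 3 = 50 to 70%; 2 = 30 to 50%; 1 = 10 to 30%; 0 = under 10%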
Experimental: as §1, §2
For CCCC(Sc1cc(-c2ccc(C(F)(F)F)n(C)c2=O)c(F)cc1Cl)C(=O)OCC (centres unmarked) [1-48], the “Herbicidal effects Am” value was 5.

These molecules were tested on monochoria (Mo) (assay: Test Example 1: herbicidal effects by paddy field soil treatment). Settings: 100 g of the active ingredient per 10 ares, 21st day after the application, index 0-5 of Table 47.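 Also: grade of growth control; 5 = at least 90%; 4 = 70 to 90%; 3 = 50 to 70%; 2 = 30 to 50%; 1 = 10 to 30%; 0 = under 10%.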
Assay type: in vivo
Method in brief: (§3)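 Herbicidal effect was scored against a graded standard 21 days after treatment. Seeds were sown in puddled, leveled paddy soil flooded to 3 cm depth, and the active ingredient was applied at 100 g per 10 ares before greenhouse culture.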
CC(C)OCCOc1cc(-c2ccc(C(F)(F)F)n(C)c2=O)c(F)cc1Cl [1-169] was tested, and the “Herbicidal effects Mo” value was 5. For C=CCOc1cc(-c2ccc(C(F)(F)F)n(C)c2=O)c(Cl)cc1Cl [1-32], the “Herbicidal effects Mo” value was 5. In the case of CCCC(Sc1cc(-c2ccc(C(F)(F)F)n(C)c2=O)c(F)cc1Cl)C(=O)OCC (centres unmarked) [1-48], the “Herbicidal effects Mo” value is reported as 5.

What follows are molecules tested on barnyardgrass (Ec) in the same assay as above. Settings: 100 g of the active ingredient per 10 ares, 21st day after the application, index 0-5 of Table 47.
Assay type: in vivo
Method in brief: as §3
With CC(C)OCCOc1cc(-c2ccc(C(F)(F)F)n(C)c2=O)c(F)cc1Cl [1-169] the “Herbicidal effects Ec” value was 5. C=CCOc1cc(-c2ccc(C(F)(F)F)n(C)c2=O)c(Cl)cc1Cl [1-32] was tested, and the “Herbicidal effects Ec” value was 5. For CCCC(Sc1cc(-c2ccc(C(F)(F)F)n(C)c2=O)c(F)cc1Cl)C(=O)OCC (centres unmarked) [1-48], the “Herbicidal effects Ec” value was 5.

Each molecule was assayed on bulrush (Sc) in the same assay as above. Settings: 100 g of the active ingredient per 10 ares, 21st day after the application, index 0-5 of Table 47.
Assay type: in vivo
Method in brief: as §3
In the case of CC(C)OCCOc1cc(-c2ccc(C(F)(F)F)n(C)c2=O)c(F)cc1Cl [1-169], the “Herbicidal effects Sc” value is reported as 5. In the case of C=CCOc1cc(-c2ccc(C(F)(F)F)n(C)c2=O)c(Cl)cc1Cl [1-32], the “Herbicidal effects Sc” value is reported as 5. In the case of CCCC(Sc1cc(-c2ccc(C(F)(F)F)n(C)c2=O)c(F)cc1Cl)C(=O)OCC (centres unmarked) [1-48], the “Herbicidal effects Sc” value is reported as 5.

The molecules below were run on rice flatsedge (Ci) (assay: Test Example 2: herbicidal effects by upland field soil treatment). Settings: 100 g of the active ingredient per 10 ares, 21st day after the application, index 0-5 of Table 47.
Assay type: in vivo
Source text: (§4) (Test on Herbicidal Effects by Upland Field Soil Treatment)
For C=CCOc1cc(-c2ccc(C(F)(F)F)n(C)c2=O)c(Cl)cc1Cl [1-32], the “Herbicidal effects Ci” value was 5.

Same assay, conditions: 100 g of the active ingredient per 10 ares, evaluated on the 21st day after application
CC(C)OCCOc1cc(-c2ccc(C(F)(F)F)n(C)c2=O)c(F)cc1Cl [1-169] was tested, and the “Herbicidal effects Ci” value was 5.

What follows are molecules tested on common lambsquarters (Ch) in the same assay as above. Settings: 100 g of the active ingredient per 10 ares, 21st day after the application, index 0-5 of Table 47.
Assay type: in vivo
Source text: as §4
C=CCOc1cc(-c2ccc(C(F)(F)F)n(C)c2=O)c(Cl)cc1Cl [1-32] was tested, and the “Herbicidal effects Ch” value was 5.

Same assay, conditions: 100 g of the active ingredient per 10 ares, evaluated on the 21st day after application
CC(C)OCCOc1cc(-c2ccc(C(F)(F)F)n(C)c2=O)c(F)cc1Cl [1-169] was tested, and the “Herbicidal effects Ch” value was 5.

These molecules were tested on Digitaria ciliaris (Di) in the same assay as above. Settings: 100 g of the active ingredient per 10 ares, 21st day after the application, index 0-5 of Table 47.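 Also: grade of growth control; 5 = at least 90%; 4 = 70 to 90%; 3 = 50 to 70%; 2 = 30 to 50%; 1 = 10 to 30%; 0 = under 10%.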
Assay type: in vivo
Source text: as §4
C=CCOc1cc(-c2ccc(C(F)(F)F)n(C)c2=O)c(Cl)cc1Cl [1-32] was tested, and the “Herbicidal effects Di” value was 5.

Same assay, conditions: 100 g of the active ingredient per 10 ares, evaluated on the 21st day after application
CC(C)OCCOc1cc(-c2ccc(C(F)(F)F)n(C)c2=O)c(F)cc1Cl [1-169] was tested, and the “Herbicidal effects Di” value was 5.

These molecules were tested on barnyardgrass (Ec) in the same assay as above. Settings: 100 g of the active ingredient per 10 ares, 21st day after the application, index 0-5 of Table 47.
Assay type: in vivo
Source text: as §4
For C=CCOc1cc(-c2ccc(C(F)(F)F)n(C)c2=O)c(Cl)cc1Cl [1-32], the “Herbicidal effects Ec” value was 5.

Same assay, conditions: 100 g of the active ingredient per 10 ares, evaluated on the 21st day after application
CC(C)OCCOc1cc(-c2ccc(C(F)(F)F)n(C)c2=O)c(F)cc1Cl [1-169] was tested, and the “Herbicidal effects Ec” value was 5.

Each molecule was assayed on pale smartweed (Po) in the same assay as above. Settings: 100 g of the active ingredient per 10 ares, 21st day after the application, index 0-5 of Table 47.
Assay type: in vivo
Source text: as §4
For C=CCOc1cc(-c2ccc(C(F)(F)F)n(C)c2=O)c(Cl)cc1Cl [1-32], the “Herbicidal effects Po” value was 5.

Same assay, conditions: 100 g of the active ingredient per 10 ares, evaluated on the 21st day after application
With CC(C)OCCOc1cc(-c2ccc(C(F)(F)F)n(C)c2=O)c(F)cc1Cl [1-169] the “Herbicidal effects Po” value was 5.

The molecules below were run on slender amaranth (Am) in the same assay as above. Settings: 100 g of the active ingredient per 10 ares, 21st day after the application, index 0-5 of Table 47.
Assay type: in vivo
Source text: as §4
With C=CCOc1cc(-c2ccc(C(F)(F)F)n(C)c2=O)c(Cl)cc1Cl [1-32] the “Herbicidal effects Am” value was 5.

Same assay, conditions: 100 g of the active ingredient per 10 ares, evaluated on the 21st day after application
In the case of CC(C)OCCOc1cc(-c2ccc(C(F)(F)F)n(C)c2=O)c(F)cc1Cl [1-169], the “Herbicidal effects Am” value is reported as 5.

These molecules were tested on rice flatsedge (Ci) (assay: Test Example 3: herbicidal effects by upland field foliage treatment). Settings: 100 g of the active ingredient per 10 ares, evaluated on the 14th day after treatment.
Assay type: in vivo
Design: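 grade of growth control; 5 = at least 90%; 4 = 70 to 90%; 3 = 50 to 70%; 2 = 30 to 50%; 1 = 10 to 30%; 0 = under 10%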
Method in brief: (§5)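 Readout: visual herbicidal rating per defined standards, 14th day after treatment. Plants sown in sand (pot area 120 cm^2), soil-covered, greenhouse-cultured for 2 weeks prior to foliage application, then greenhouse-grown until scoring.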
For CC(C)OCCOc1cc(-c2ccc(C(F)(F)F)n(C)c2=O)c(F)cc1Cl [1-169], the “Herbicidal effects Ci” value was 5. With C=CCOc1cc(-c2ccc(C(F)(F)F)n(C)c2=O)c(Cl)cc1Cl [1-32] the “Herbicidal effects Ci” value was 5. For CCCC(Sc1cc(-c2ccc(C(F)(F)F)n(C)c2=O)c(F)cc1Cl)C(=O)OCC (centres unmarked) [1-48], the “Herbicidal effects Ci” value was 5.

These molecules were tested on common lambsquarters (Ch) in the same assay as above. Settings: 100 g of the active ingredient per 10 ares, evaluated on the 14th day after treatment.
Assay type: in vivo
Design: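 grade of growth control; 5 = at least 90%; 4 = 70 to 90%; 3 = 50 to 70%; 2 = 30 to 50%; 1 = 10 to 30%; 0 = under 10%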
Method in brief: as §5
For CC(C)OCCOc1cc(-c2ccc(C(F)(F)F)n(C)c2=O)c(F)cc1Cl [1-169], the “Herbicidal effects Ch” value was 5. With C=CCOc1cc(-c2ccc(C(F)(F)F)n(C)c2=O)c(Cl)cc1Cl [1-32] the “Herbicidal effects Ch” value was 5. With CCCC(Sc1cc(-c2ccc(C(F)(F)F)n(C)c2=O)c(F)cc1Cl)C(=O)OCC (centres unmarked) [1-48] the “Herbicidal effects Ch” value was 5.

Each molecule was assayed on barnyardgrass (Ec) in the same assay as above. Settings: 100 g of the active ingredient per 10 ares, evaluated on the 14th day after treatment.
Assay type: in vivo
Design: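 grade of growth control; 5 = at least 90%; 4 = 70 to 90%; 3 = 50 to 70%; 2 = 30 to 50%; 1 = 10 to 30%; 0 = under 10%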
Method in brief: as §5
In the case of CC(C)OCCOc1cc(-c2ccc(C(F)(F)F)n(C)c2=O)c(F)cc1Cl [1-169], the “Herbicidal effects Ec” value is reported as 5. For C=CCOc1cc(-c2ccc(C(F)(F)F)n(C)c2=O)c(Cl)cc1Cl [1-32], the “Herbicidal effects Ec” value was 5. In the case of CCCC(Sc1cc(-c2ccc(C(F)(F)F)n(C)c2=O)c(F)cc1Cl)C(=O)OCC (centres unmarked) [1-48], the “Herbicidal effects Ec” value is reported as 5.

What follows are molecules tested on pale smartweed (Po) in the same assay as above. Settings: 100 g of the active ingredient per 10 ares, evaluated on the 14th day after treatment.
Assay type: in vivo
Design: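 grade of growth control; 5 = at least 90%; 4 = 70 to 90%; 3 = 50 to 70%; 2 = 30 to 50%; 1 = 10 to 30%; 0 = under 10%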
Method in brief: as §5
With CC(C)OCCOc1cc(-c2ccc(C(F)(F)F)n(C)c2=O)c(F)cc1Cl [1-169] the “Herbicidal effects Po” value was 5. C=CCOc1cc(-c2ccc(C(F)(F)F)n(C)c2=O)c(Cl)cc1Cl [1-32] was tested, and the “Herbicidal effects Po” value was 5. In the case of CCCC(Sc1cc(-c2ccc(C(F)(F)F)n(C)c2=O)c(F)cc1Cl)C(=O)OCC (centres unmarked) [1-48], the “Herbicidal effects Po” value is reported as 5.

What follows are molecules tested on slender amaranth (Am) in the same assay as above. Settings: 100 g of the active ingredient per 10 ares, evaluated on the 14th day after treatment.
Assay type: in vivo
Design: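 grade of growth control; 5 = at least 90%; 4 = 70 to 90%; 3 = 50 to 70%; 2 = 30 to 50%; 1 = 10 to 30%; 0 = under 10%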
Method in brief: as §5
With CC(C)OCCOc1cc(-c2ccc(C(F)(F)F)n(C)c2=O)c(F)cc1Cl [1-169] the “Herbicidal effects Am” value was 5. For C=CCOc1cc(-c2ccc(C(F)(F)F)n(C)c2=O)c(Cl)cc1Cl [1-32], the “Herbicidal effects Am” value was 5. In the case of CCCC(Sc1cc(-c2ccc(C(F)(F)F)n(C)c2=O)c(F)cc1Cl)C(=O)OCC (centres unmarked) [1-48], the “Herbicidal effects Am” value is reported as 5.

Each molecule was assayed on Diaitaria ciliaris (Di) in the same assay as above. Settings: 100 g of the active ingredient per 10 ares, evaluated on the 14th day after treatment.
Assay type: in vivo
Design: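 grade of growth control; 5 = at least 90%; 4 = 70 to 90%; 3 = 50 to 70%; 2 = 30 to 50%; 1 = 10 to 30%; 0 = under 10%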
Method in brief: as §5
CC(C)OCCOc1cc(-c2ccc(C(F)(F)F)n(C)c2=O)c(F)cc1Cl [1-169] was tested, and the “Herbicidal effects Di” value was 5. With C=CCOc1cc(-c2ccc(C(F)(F)F)n(C)c2=O)c(Cl)cc1Cl [1-32] the “Herbicidal effects Di” value was 5. For CCCC(Sc1cc(-c2ccc(C(F)(F)F)n(C)c2=O)c(F)cc1Cl)C(=O)OCC (centres unmarked) [1-48], the “Herbicidal effects Di” value was 5.
